This is an account of results in patent publication US20100311770A1, “COMPOUND COMBINATIONS FOR INHIBITING CELL DIVISION AND METHODS FOR THEIR IDENTIFICATION AND USE” (President and Fellows of Harvard College, priority 2005, published 2010).

Assay [1] has as its system E. coli DRC39 (ΔacrAB::kan). The assay is classed as cell-based. The note with it: for MIC: E. coli DRC39 (ΔacrAB::kan), MIC99.
The test system of a further assay is E. coli strain DRC39. The assay is described as follows: combination anti-bacterial treatment at sub-MIC concentrations, cell growth by turbidity or OD600. Type of assay: cell-based. To be noted: for amount of growth relative to absence of compound / growth inhibition: single compound. As for the experimental part:
Cell growth was assessed by visual inspection of cells incubated in culture tubes in this experiment and in the second, third, and fourth experiments described in this Example. In the fifth experiment growth was measured by reading optical density (OD600) using a multiwell plate reader. Cells were inoculated at a low concentration (1-2×10^5 cells/ml), such that the medium appeared clear.

In assay [2] the target is E. coli FtsZ (FtsZEc) GTPase (Escherichia coli, UniProt P0A9A6). To be noted: read-out: IC50 FtsZEc GTPase; 5 min preincubation at 30° C., 1 mM GTP; average of three determinations. As for the experimental part:
FtsZ was preincubated with varying concentrations of compounds or with 3% DMSO in buffer E for 5 min at 30° C., before adding 1 mM GTP to the reactions. Reaction kinetics were followed by measuring inorganic phosphate released upon GTP hydrolysis. The IC50 values were extrapolated from log dose-response curves and are averages from three independent determinations.

The target in assay [3] is M. tuberculosis FtzZ (FtsZMt) GTPase (Mycobacterium tuberculosis, UniProt P9WN95). The assay is described as follows: malachite green-phosphomolybdate assay of FtsZ GTPase activity. Type of assay: biochemical. To be noted: 5 min preincubation at 30° C., 1 mM GTP; average of three determinations.
Chain of M. tuberculosis FtzZ (FtsZMt) GTPase (P9WN95 whole entry): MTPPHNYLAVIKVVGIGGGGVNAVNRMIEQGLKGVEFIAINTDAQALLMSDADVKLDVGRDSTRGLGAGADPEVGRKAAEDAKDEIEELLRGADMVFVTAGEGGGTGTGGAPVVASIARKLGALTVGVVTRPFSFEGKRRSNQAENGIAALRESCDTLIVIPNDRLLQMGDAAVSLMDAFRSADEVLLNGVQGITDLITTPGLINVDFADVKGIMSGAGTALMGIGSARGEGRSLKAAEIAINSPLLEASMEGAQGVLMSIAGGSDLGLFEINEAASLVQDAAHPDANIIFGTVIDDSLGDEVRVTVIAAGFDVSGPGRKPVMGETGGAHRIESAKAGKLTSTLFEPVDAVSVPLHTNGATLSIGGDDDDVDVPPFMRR
The test system of assay [4] is E. coli DRC40 (DRC39 ftsZ84). Kind of assay: MIC / growth and phenotype, broth culture. The assay is classed as cell-based.
Another assay relates to Clostridium perfringens. Type of assay: cell-based.
The next assay deals with E. coli DRC40/pBR-ftsZ+. The assay is classed as cell-based.
In assay [5] the test system is FtsZ ring assembly in E. coli DRC39 cells. The assay is classed as cell-based.
Assay [6] concerns E. coli MC1000 (wild-type). The assay is described as follows: MIC, standard broth dilution. The note with it: MIC99. Background: Broth dilution looks for growth in wells or tubes with falling amounts of substance.
Assay [7] relates to E. coli DRC42 (DRC39 recA::cat). The assay is described as follows: MIC, standard broth dilution.
The subject of the next assay is Vibrio cholerae. The assay is described as follows: MIC, standard broth dilution.
A further assay relates to Bacillus subtilis. The assay is described as follows: MIC / killing, broth culture.
The next assay concerns Staphylococcus aureus. Kind of assay: MIC, standard broth dilution.
For assay [8], the system named is gram-negative and gram-positive bacteria. Kind of assay: MIC against a variety of bacteria (FIG. 19). Type of assay: cell-based. As for the experimental part: FIG. 19 is a table illustrating the minimum inhibitory concentrations of FtsZ GTPase inhibitory compounds identified in vitro. The compounds were tested against a variety of gram-negative and gram-positive bacteria.
The minimum inhibitory concentrations for some of the identified compounds against various bacterial species and strains were evaluated and results are shown herein (see, e.g., FIG. 19 for MIC values of compounds identified using in vitro assays, and see Table 3 for MIC values for compound 26E-10).

Where [9] appears, read: C. perfringens, 80 μM, anaerobic conditions.

The MIC is the least concentration at which growth counts as inhibited. High values mean a need for much substance, low ones inhibition by little substance. As a reminder, the IC50 is the point on the concentration scale where inhibition reaches its midpoint.

SMILES strings stand for the structures. Values after ≈ are worked out from the molar mass of the structure shown. “Also recorded” adds a separate entry of the source.

Chain of E. coli FtsZ (FtsZEc) GTPase (P0A9A6 whole entry): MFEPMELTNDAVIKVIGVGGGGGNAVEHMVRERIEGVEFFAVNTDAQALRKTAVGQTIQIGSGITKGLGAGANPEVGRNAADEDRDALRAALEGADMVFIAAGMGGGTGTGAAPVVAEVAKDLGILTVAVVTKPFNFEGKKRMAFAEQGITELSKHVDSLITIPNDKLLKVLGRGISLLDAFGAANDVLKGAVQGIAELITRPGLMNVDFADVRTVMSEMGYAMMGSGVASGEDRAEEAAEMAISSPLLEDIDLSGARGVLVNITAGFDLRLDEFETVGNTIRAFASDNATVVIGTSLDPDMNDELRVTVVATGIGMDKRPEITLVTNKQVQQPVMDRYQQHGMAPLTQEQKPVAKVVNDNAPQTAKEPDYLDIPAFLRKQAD

The molecule `CCN1C(=Cc2ccc3c4ccccc4ccc3[n+]2CC)C=Cc2ccccc21.Cc1ccc(S(=O)(=O)[O-])cc1` [7N-12] had an MIC in [1] of 1.25 µM. For the same molecule, in the assay on E. coli strain DRC39 (0.3 μM), the “amount of growth relative to absence of compound” value is on record as 98% and the growth inhibition came out at 2%.

Take `CCN(CC)CCNc1nc(C=Cc2ccc(Cl)cc2)nc2cc3ccccc3cc12` [16L-09]: the IC50 came to 15 µM in assay [2] and 50 µM in assay [3]. In [1], this molecule came in with an MIC of 10 µM (≈ 4.31 µg/mL). For the same molecule, in the assay on E. coli strain DRC39 (in combination with 26E-10 at sub-MIC concentrations), the “reduction in MIC when administered in combination” value is 4 fold.

In the case of `CC[n+]1ccc(/C=C/N(C)c2ccccc2)c2ccccc21.[I-]` [26E-10], the “cell morphology and density” value in assay [1] (DRC39, 5 μM compound, 30° C.) is “mixture of filaments of varying lengths and short cells present at a low density”. For the same molecule, the “phenotype at MIC” value in assay [1] (E. coli DRC39) and in assay [4] (E. coli DRC40) was “filaments” each time. Moreover, the MIC in assay [1] is 10 µM; in assay [4] (E. coli DRC40 (ftsZ84), 30° C., MIC99), 2.5 µM; in the assay with Clostridium perfringens (Clostridium perfringens), > 80 µM; with E. coli DRC40/pBR-ftsZ+ (DRC40 with wild-type ftsZ in trans (pBR-ftsZ+)) it was 10 µM; in assay [6] it was >40 µM; in assay [7] it was 10 µM. For the same molecule, the MIC turned out to be 40 µM in the assay with Vibrio cholerae, 40 µM against Bacillus subtilis (Bacillus subtilis) and 20 µM with Staphylococcus aureus. The growth entry in assay [4] (DRC40/pBR322, 5 μM compound, 30° C.) is on record as “absolutely no growth”. The “effect on cell growth” value in the assay with Clostridium perfringens (setting [9]) is “without any overt effect on cell growth”. The phenotype entry in the assay with Clostridium perfringens (setting [9]) is recorded as “filamentation phenotype; also recorded: filaments”. Moreover, in the assay with E. coli DRC40/pBR-ftsZ+ (DRC40/pBR-ftsZ+, 5 μM compound, versus DRC40/pBR322), the “cell density and filamentation” value is “higher cell density and less pronounced filamentation”. Also, the “amount of growth relative to absence of compound” value in the assay with E. coli strain DRC39 (5 μM) is reported as 41%. In the assay with E. coli strain DRC39 (5 μM), the growth inhibition turned out to be 59%. The “DNA replication / chromosome segregation (DAPI staining of nucleoids)” value in assay [5] (10 μM) was “does not affect DNA replication or chromosome segregation”. Also, the “Z-rings in elongated cells” value in [5] (10 μM (MIC), within 60 min) is “markedly reduced in number and diminished in intensity”. Moreover, in assay [5] (10 μM, after 90 min treatment), the Z-rings entry is recorded as “most of the cells were devoid of distinct Z-rings”. In addition, in assay [5] (10 μM, within 60 min of treatment), the “cell length (filamentation)” value was ~4 ×. For the same molecule, in the assay with Bacillus subtilis, the “killing of B. subtilis” value is on record as “efficiently killed”.

Turning to `Oc1ccc(Cl)cc1Cc1cc(Cl)cc(Cc2cc(Cl)ccc2O)c1O` [27D-12], the IC50 in [2] stood at 5 µM. This molecule gave an IC50 in assay [3] of 55 µM. The same molecule yielded an MIC in [1] of 20 µM (≈ 8.19 µg/mL). In assay [8], the “activity against gram negative bacteria” value is given as “kills gram negative species” and the “activity against gram positive bacteria” value is listed as “effective against gram positive bacteria at very low concentrations”.

On to `Nc1c(C=Cc2cc3cc(C4=NCCN4)ccc3o2)[nH]c2cc(C3=NCCN3)ccc12` [58P-18], for which the IC50 in assay [2] came to 4 µM. Also, in assay [3], the 50% inhibitory concentration (IC50) was 30 µM. Also, in assay [1], the MIC is 80 µM (≈ 32.8 µg/mL). In assay [5] (40 μM), the Z-ring assembly result is recorded as “none of the treated cells appear to contain a medial FtsZ ring” and the “time until cells start elongating” value is given as ≤ 60 min.
